# Measured values published in patent US12077508B2, “Inhibitors of the Notch transcriptional activation complex kinase (“NACK”) and methods for use of the same” (UNIVERSITY OF MIAMI, priority 2018, dated 2024).
# Experiments:
# [1] = system: esophageal adenocarcinoma (EAC) PDX
# Procedure: Two EAC PDX models were constructed (EAC47 and EAC36) from patient tumor samples. Mice harboring established tumors (approx. 200 mm^3) were treated with either DAPT (20 mg/kg) or Z271-0326 (25 mg/kg) daily via intraperitoneal injections.
# When the tumor size reaches 200 mm^3, the corresponding groups were either treated with vehicle (DMSO) or lead compound by IP injection daily.
# HES1 promoter = test: Chromatin immunoprecipitation (ChIP) at the HES1 promoter in OE33; assay type: cell-based, human; details: FIG. 8C
# Procedure: Notch/NACK-dependent cells were treated with either DAPT as a positive control, DMSO (vehicle) as a negative control, or compounds for screening for 24 hours. After treatment, cells were cross-linked and sonicated to yield chromatin fragments of approximately 500 bp, as previously described (See Weaver et al., Cancer Research 74, 4741-4751 (2014)). Lysates were immunoprecipitated with either α-Notch1 (Bethyl Laboratories, Montgomery, TX; A301-894A), α-Maml1 (Cell Signaling, 12166s), α-NACK (Bethyl Laboratories, A302-675A), or α-PoIII pSer5 (Abcam, ab5131) antibodies. DNA immunoprecipitates were cleaned using the PCR purification Kit (Qiagen). DNA were detected by Syber green qPCR using HES1 specific oligonucleotide primers (forward: 5′CGTGTCTCCTCCTCCCATT3′ (SEQ ID NO: 2); reverse: 5′GGGGGATTCCGCTGTTAT3′ (SEQ ID NO:3)).
# HC11/N1ICD spheres = test: Tumor sphere formation assay in HC11/N1ICD; assay type: cell-based, mouse
# From the text: To further explore the effect of NACK inhibitors targeting Notch pathway, ectopic expression of Notch in HC11 mammary epithelial cells was constructed, as HC11 cells have little to no endogenous Notch activity. Moreover, HC11 cells are insensitive to either DAPT or Z271-0326 treatment as shown in previous colony formation assay (FIG. 5B). See Weaver et al., Cancer Research 74, 4741-4751 (2014). […] Therefore, transformation of HC11 cells by Notch now renders these cells dependent on Notch activity and sensitive to inhibition of NACK by Z271-0326.
# In order to assess the effect of hit to lead compounds on the proliferation of stem cell like population of Notch/NACK dependent cells, the primary tumor spheres were treated with NACK inhibitor and allow the cells to be propagated as secondary cultures. To obtain tumor spheres, cells were cultured in DMEM/F12 with 2% B-27 serum-free supplement (17604-044; Invitrogen), 20 ng/mL epidermal growth factor (EGF; PHG0311L; Invitrogen), and 20 ng/mL basic fibroblastic growth factor (bFGF; PHG0266; Invitrogen) for 14 days. Resulting tumor spheres were examined and counted under the microscope. Furthermore, the tumor spheres were collected for further RT-qPCR analysis to test the effect of hit to lead compounds on the stem like target genes.
compound,measurement,setting,value
"CCN(CC)C(=O)c1cnn2ccc(C3CCN(S(=O)(=O)c4ccc(NC(C)=O)cc4)CC3)cc12 [Compound Z271-0326, 5-(1-((4-acetamidophenyl)sulfonyl)piperidin-4-yl)-N,N-diethylpyrazolo[1,5-a]pyridine-3-carboxamide]",proliferation index (Ki67 staining),"[1]; Z271-0326 25 mg/kg daily i.p., vs control group, FIG. 11E",decrease in proliferation index
same,tumor growth,"[1]; Z271-0326 25 mg/kg daily intraperitoneal, vs vehicle, FIGS. 11A-11C",significantly attenuated
same,binding of N1ICD and NACK to the HES1 promoter,HES1 promoter; 24 hours,abrogated the binding of N1ICD and NACK to the HES1 promoter
same,Pol II pSer5 initiation complex formation at the HES1 promoter,HES1 promoter,decreases the RNA polymerase initiation complex (Pol II pSer5) formation at the HES1 promoter
same,"HES1 and stem-cell marker gene expression (ALDH1A1, SNAIL1, TWIST1)","HC11/N1ICD spheres; HC11/N1ICD spheres, FIG. 7D",causes a decrease in HES1 gene expression as well as several other stem-cell marker genes
same,secondary sphere formation,"HC11/N1ICD spheres; HC11/N1ICD, FIG. 7C",inhibits the ability of HC11/N1ICD spheres to form secondary spheres
